These results are taken from US20220185818A1, “PYRROLOHETEROCYCLIC DERIVATIVE, PREPARATION METHOD THEREFOR, AND APPLICATION THEREOF IN MEDICINE” (Jiangsu Hengrui Medicine Co., Ltd., priority 2019, published 2022).

For one data set, the system named is Colo205 cells. Put plainly: In vitro proliferation inhibition test on Colo205 tumor cells (CellTiter-Glo). It counts as cell-based. Conditions: Homo sapiens, COLO 205, 72 h; 3 days of culture, CTG; read-out: IC50 value of the inhibition on in vitro Colo205 tumor cell proliferation. The method, then:
The purpose of this experiment is to test the inhibitory activity of the compounds on the proliferation of Colo205 cells (CCL-222, ATCC) in vitro. The cells were treated in vitro with different concentrations of the compounds. After 3 days of culture, the cell proliferation was tested with CTG (CellTiter-Glo® Luminescent Cell Viability Assay, Promega, Catalog No. G7573) reagent, and the in vitro activity of the compounds was evaluated according to the IC50 value.
In the following, taking the in vitro proliferation inhibition test method of Colo205 cells as an example, the method in the present disclosure for testing the in vitro proliferation inhibitory activity of the compounds of the present disclosure is described. This method is also applicable to, but not limited to, the in vitro proliferation inhibitory activity test on other tumor cells.
Colo205 cells were digested, centrifuged and then resuspended. The single cell suspension was mixed well, and the density of viable cells was adjusted to 5.0×10^4 cells/ml with cell culture medium (RPMI1640+2% FBS), and 95 μl/well was added to a 96-well cell culture plate. Only 100 μl medium was added to the peripheral wells of the 96-well plate. The culture plate was incubated in an incubator for 24 hours (37° C., 5% CO2).
The compound was dissolved in DMSO and prepared into a stock solution with an initial concentration of 20 mM. The initial concentration of the small molecule compound was 2 mM, and then 4-fold diluted into 9 points, and the 10th point is DMSO. Another 96-well plate was taken and 90 μl of cell culture medium (RPMI1640+2% FBS) was added to each well, then 10 μl of different concentrations of the test sample was added to each well. The mixture was mixed well, and then 5 μL of different concentrations of the test sample was added to the cell culture plate with duplicate well for each sample. The culture plate was incubated in an incubator for 3 days (37° C., 5% CO2). The 96-well cell culture plate was taken out, 50 μL CTG solution was added to each well, and the plate was incubated for 10 minutes at room temperature. In a microplate reader (BMG labtech, PHERAstar FS), chemiluminescence was measured with the microplate reader.
(§1) Microsoft Excel, Graphpad Prism 5 was used to process and analyze the data.
(In general: ATP-based viability assays read luminescence as a measure of living cells.)

Another data set addresses T1, ERK2 (Homo sapiens, UniProt P28482).
T1 construct: purchased R&D 1879-KS-010
Briefly: ERK2 enzyme activity test (ADP-Glo Kinase Assay). Conditions: read-out: IC50 value of the inhibition on ERK2 enzyme activity. It counts as biochemical. Here is the method: (§2) The purpose of this experiment is to detect the inhibitory ability of the compounds on the ERK2 enzyme activity, and evaluate the in vitro activity of the compounds based on the IC50. The ADP-Glo™ Kinase Assay Kit is used in this experiment. Under the action of the enzyme, the substrate is phosphorylated and ADP is produced at the same time. The ADP-Glo reagent is added to remove the unreacted ATP in the reaction system, and the ADP produced by the reaction is detected by the kinase detection reagent. In the presence of the compound, the inhibition rate of the compound is calculated by measuring the signal value.
(§3) ATP was diluted to 500 μM with the buffer. The compound was dissolved in DMSO to prepare a stock solution with an initial concentration of 20 mM, and then Bravo (SGC120TH34702, Agilent Technologies) was used to dilute the stock solution to desired concentrations. Finally, a 3 μL of a mixed solution of enzyme and substrate, and 1 μL of different concentrations of the compound (the initial concentration is 50 μM, 4-fold dilution) were added to each well of the 384-well plate, and the plate was incubated at 30° C. for 10 minutes, and finally 1 μL of 500 μM ATP solution was added to each well, and the plate was incubated at 30° C. for 2 hours. Then 5 μL of ADP-Glo was added, and the plate was incubated at 30° C. for 40 minutes. Then 10 μL of kinase detection buffer was added, and the plate was incubated at 30° C. for 40 minutes. The 384-well plate was taken out and placed in a microplate reader (BMG labtech, PHERAstar FS), and the chemiluminescence was measured by the microplate reader.
as §1
A general note: In ADP-Glo the light output rises with the ADP produced.

The next data set has as its target T2, ERK1 (Homo sapiens, UniProt P27361).
T2 construct: purchased R&D 1879-KS-010
Put plainly: ERK1 enzyme activity test (ADP-Glo Kinase Assay). The class given is biochemical. Conditions: read-out: IC50 value of the inhibition on ERK1 enzyme activity. Here is the method: as §2, with “the ERK1” for “the ERK2”, “detected with” for “detected by”
as §3, with “diluted to 300 μM with” for “diluted to 500 μM with”, “Finally, a […] of” for “Finally, a 3 μL of”, “and 1 μL, of different” for “and 1 μL of different”, “μL of 300 μM ATP” for “μL of 500 μM ATP”, “μL of Kinase detection buffer” for “μL of kinase detection buffer”
as §1

Data set [1] can be described thus: Pharmacokinetics assay in mice. It counts as in vivo. Conditions: female, mouse, po, C57 mice, intragastrical administration, 2 mg/kg, plasma; for Vd/F: read-out: Apparent distribution volume Vz/F; for AUC: read-out: Area under curve AUC; for CL/F: read-out: Clearance CLz/F; for half-life: read-out: Half-life T1/2 (converted); for Cmax: read-out: Plasma concentration Cmax; for MRT: read-out: Residence time MRT. Here is the method: Mice were used as test animals. […] The pharmacokinetic behavior of the compounds of the present disclosure was studied in mice, and the pharmacokinetic characteristics were evaluated.
2.2 Test Animals Thirty-six C57 mice (female, equally divided into 4 groups) were purchased from Shanghai Jiesijie Laboratory Animal Co., LTD.
A certain amount of the test compound was weighed and dissolved by the addition of 5% of DMSO and 5% of tween 80. Then 90% of normal saline were added to prepare a 0.1 mg/mL colorless, clear and transparent solution.
After an overnight fast, C57 mice were intragastrically administered the test compound at a dosage of 2 mg/kg and a volume of 0.2 ml/10 g.
The mice were intragastrically administered the test compounds. 0.1 ml of blood was taken before the administration and at 0.25, 0.5, 1.0, 2.0, 4.0, 6.0, 8.0, 11.0 and 24.0 hours after the administration. The samples were stored in heparinized tubes, and centrifuged for 10 minutes at 3500 rpm to separate the blood plasma. The plasma samples were stored at −20° C.
The content of the test compound in the plasma of mice after intragastrical administration of the test compound at different concentrations was determined: 25 μL of […] plasma at each time point after the administration was taken, followed by the addition of 50 μL of the internal standard camptothecin solution (National Institutes for Food and Drug Control of China) and 200 μL of acetonitrile. The resulting solution was vortex-mixed for 5 minutes, and centrifuged for 10 minutes (4000 rpm). 4 μL of the supernatant was taken from the plasma samples for LC/MS/MS analysis.

T2 sequence (P27361 whole entry): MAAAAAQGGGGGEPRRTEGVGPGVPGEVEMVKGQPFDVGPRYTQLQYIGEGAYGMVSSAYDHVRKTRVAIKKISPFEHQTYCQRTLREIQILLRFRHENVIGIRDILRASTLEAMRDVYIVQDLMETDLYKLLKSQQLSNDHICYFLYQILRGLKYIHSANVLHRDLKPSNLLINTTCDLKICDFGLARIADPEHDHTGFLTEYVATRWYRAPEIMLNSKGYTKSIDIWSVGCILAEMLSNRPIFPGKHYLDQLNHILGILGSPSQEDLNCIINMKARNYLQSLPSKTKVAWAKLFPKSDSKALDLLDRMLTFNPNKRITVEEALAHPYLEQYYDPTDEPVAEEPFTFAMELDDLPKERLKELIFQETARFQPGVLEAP
T1 sequence (P28482 2-360 limits assumed): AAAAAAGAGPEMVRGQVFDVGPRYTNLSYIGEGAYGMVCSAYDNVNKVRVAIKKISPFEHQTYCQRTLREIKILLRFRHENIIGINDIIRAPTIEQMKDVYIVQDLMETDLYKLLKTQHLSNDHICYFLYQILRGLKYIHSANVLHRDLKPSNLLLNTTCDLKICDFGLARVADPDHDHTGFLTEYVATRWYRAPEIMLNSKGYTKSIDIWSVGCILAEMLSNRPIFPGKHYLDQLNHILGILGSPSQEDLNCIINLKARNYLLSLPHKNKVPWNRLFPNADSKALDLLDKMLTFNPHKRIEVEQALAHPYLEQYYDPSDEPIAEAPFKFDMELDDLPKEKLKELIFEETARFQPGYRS

One may read the AUC as the area under the concentration-time curve, a measure of exposure. As usually defined, the MRT is the average time that molecules of a dose stay in the body. For `Cn1nccc1Nc1nccc(-c2cc3n(c2)C(=O)N([C@H](CO)c2cccc(Cl)c2)C3)n1` [Example 10, (S)-2-(1-(3-Chlorophenyl)-2-hydroxyethyl)-6-(2-((1-methyl-1H-pyrazol-5-yl)amino)pyrimidin-4-yl)-1,2-dihydro-3H-pyrrolo[1,2-c]imidazol-3-one], in the data set with Colo205 cells, the IC50 was determined as 62 nM. On ERK2, the IC50 is 7 nM. Also, on ERK1, the IC50 came to 5 nM. In data set [1], the Vd/F amounted to 3.07 L/kg, the AUC is 3440 ng·h/mL, the CL/F was 9.69 mL/min/kg and the half-life was 3.66 h. Also, in data set [1], the Cmax turned out to be 1020 ng/mL and the mean residence time (MRT) was 3.47 h.

Turning to `Cc1cccc([C@@H](CO)N2Cc3cc(-c4ccnc(Nc5ccnn5C)n4)cn3C2=O)c1` [Example 15, (S)-2-(2-Hydroxy-1-(m-tolyl)ethyl)-6-(2-((1-methyl-1H-pyrazol-5-yl)amino)pyrimidin-4-yl)-1H-pyrrolo[1,2-c]imidazol-3(2H)-one], the IC50 with Colo205 cells is 55 nM. Also, the IC50 on ERK2 came to 5 nM. Also, the IC50 on ERK1 was 5 nM. For the same molecule, in data set [1], the Vd/F was determined as 2.13 L/kg, the area under the curve (AUC) was determined as 3700 ng·h/mL, the CL/F was found to be 9 mL/min/kg and the half-life was 2.74 h. For the same molecule, in data set [1], the Cmax was determined as 816 ng/mL and the mean residence time (MRT) stood at 3.3 h.

With `Cn1nccc1Nc1nccc(-c2cc3n(c2)C(=O)N([C@H](CO)c2ccc(Cl)c(F)c2)C3)n1` [Example 20, (S)-2-(1-(3-Fluoro-4-chlorophenyl)-2-hydroxyethyl)-6-(2-((1-methyl-1H-pyrazol-5-yl)amino)pyrimidin-4-yl)-1H-pyrrolo[1,2-c]imidazol-3(2H)-one], the IC50 in the data set on Colo205 cells was determined as 68 nM. The IC50 on ERK2 came to 18 nM. For the same molecule, at ERK1, the IC50 is 30 nM. Besides, in data set [1], the Vd/F is 1.41 L/kg, the exposure (AUC) came to 7630 ng·h/mL, the CL/F was found to be 4.37 mL/min/kg and the half-life was 3.73 h. For the same molecule, in data set [1], the Cmax was determined as 1540 ng/mL and the MRT is 4.95 h.
